Earlier results as cited in patent publication US8012958B2, “Methods for treating anxiety related disorders” (Hythlam, Inc., priority 2005, dated 2011).
Like-named read-outs stand apart in the source and are kept apart here.

How the values were obtained:
[1] = tested on: GABAA receptor α4 subunit mRNA; settings: for amount of α4 subunit mRNA after withdrawal of the drug: withdrawal after long-term exposure
GABAA receptors = settings: 3 μM flumazenil; ethanol withdrawn cells
[2] = not given; remark: listed apart in the source
[3] = overdose
[4] = tested on: GABAA receptors that contain α4 or α6 subunits
[5] = biological target: T1, monoamine oxidase A (MAO-A) (Homo sapiens, UniProt P21397); settings: single 300 mg dose
T1 sequence (P21397 1-527): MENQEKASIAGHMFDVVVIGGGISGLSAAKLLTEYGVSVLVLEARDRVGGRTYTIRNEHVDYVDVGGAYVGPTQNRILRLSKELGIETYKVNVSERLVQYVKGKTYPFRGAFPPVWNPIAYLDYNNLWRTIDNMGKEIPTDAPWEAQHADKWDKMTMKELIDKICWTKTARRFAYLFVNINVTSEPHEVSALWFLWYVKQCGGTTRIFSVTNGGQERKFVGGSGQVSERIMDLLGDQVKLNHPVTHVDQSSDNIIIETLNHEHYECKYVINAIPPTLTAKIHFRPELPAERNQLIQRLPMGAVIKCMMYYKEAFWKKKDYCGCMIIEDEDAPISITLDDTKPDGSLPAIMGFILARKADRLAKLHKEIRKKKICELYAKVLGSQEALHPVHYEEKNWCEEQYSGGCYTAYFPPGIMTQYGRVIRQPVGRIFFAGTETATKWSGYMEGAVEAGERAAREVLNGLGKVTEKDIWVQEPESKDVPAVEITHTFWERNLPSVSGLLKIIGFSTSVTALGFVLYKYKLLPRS

[6] = biological target: T2, monoamine oxidase B (MAO-B) (Homo sapiens, UniProt P27338); settings: single 300 mg dose
T2 sequence (P27338 1-520): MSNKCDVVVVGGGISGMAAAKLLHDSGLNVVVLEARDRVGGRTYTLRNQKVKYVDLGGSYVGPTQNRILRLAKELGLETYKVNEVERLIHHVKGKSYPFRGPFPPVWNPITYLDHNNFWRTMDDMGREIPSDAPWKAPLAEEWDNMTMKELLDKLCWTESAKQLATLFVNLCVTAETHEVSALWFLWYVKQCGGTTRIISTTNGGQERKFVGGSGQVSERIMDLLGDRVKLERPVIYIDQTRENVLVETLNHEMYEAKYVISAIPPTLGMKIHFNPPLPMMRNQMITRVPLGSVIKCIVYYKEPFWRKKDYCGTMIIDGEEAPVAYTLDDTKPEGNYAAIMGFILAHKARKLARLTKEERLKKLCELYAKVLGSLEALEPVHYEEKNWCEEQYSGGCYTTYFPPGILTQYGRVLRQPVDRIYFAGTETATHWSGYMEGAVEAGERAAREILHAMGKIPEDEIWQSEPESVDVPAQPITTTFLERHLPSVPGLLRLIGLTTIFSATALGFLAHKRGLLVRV

[7] = IM 2 to 3 mg (0.02 to 0.05 mg/kg); patients 60 years or older without concomitant narcotics

Structure (SMILES): Cc1ccc(-c2nc3ccc(C)cn3c2CC(=O)N(C)C)cc1 [zolpidem]
- amount of α4 subunit mRNA after withdrawal of the drug [1]: marked increase

Structure (SMILES): CCOC(=O)c1ncn2c1CN(C)C(=O)c1cc(F)ccc1-2 [flumazenil, ethyl 8-fluoro-5,6-dihydro-5-methyl-6-oxo-4H-imidazo-[1,5-a][1,4]benzodiazepine-3-carboxylate]
- modulation of the GABA evoked Cl- current (GABAA receptors): potentiates the GABA evoked Cl— current
- adverse effect on the nervous system (human, in vivo): causing increased agitation and anxiety

Structure (SMILES): COc1ccc2c3c1O[C@H]1[C@@H](O)C=C[C@H]4[C@@H](C2)N(C)CC[C@@]341 [CODEINE]
- dose about equal to 30 mg (oral) of morphine ([2]; oral): 200 mg (oral) of codeine is about equal to 30 mg (oral) of morphine.

Structure (SMILES): CC1CN2CC(=O)Nc3ccc(Cl)cc3C2(c2ccccc2)O1 (stereo not shown) [OXAZOLAM]
- dose equivalent to 10 mg of Diazepam ([2]; oxazolam): 20 mg is equivalent to 10 mg of Diazepam.

Structure (SMILES): C[C@]12C=CC(=O)N[C@@H]1CC[C@@H]1[C@@H]2CC[C@]2(C)[C@@H](C(=O)Nc3cc(C(F)(F)F)ccc3C(F)(F)F)CC[C@@H]12 [DUTASTERIDE, (5α,17β)-N-{2,5 bis(trifluoromethyl)phenyl}-3-oxo-4-azaandrost-1-ene-17-carboxamide]
- adverse effects compared with therapeutic dose of 0.5 mg (clinical study, 5 mg daily for 6 months): subjects for 6 months with no additional adverse effects to those

Structure (SMILES): CCCC(C)(COC(N)=O)COC(N)=O [MEPROBROMATE]
- ingested amount with which survival has been reported (as much as) [3]: much as 40 g.

Structure (SMILES): CN1C(=O)CN=C(c2ccccc2)c2cc(Cl)ccc21 [diazepam]
- effect on the ethanol withdrawal-induced increase in abundance of α4 subunit mRNA ([1]; exposure at the time of ethanol withdrawal): antagonizes the withdrawal-induced increase
- amount of α4 subunit mRNA after withdrawal of the drug [1]: marked increase
- affinity for or efficacy at GABAA receptors that contain α4 or α6 subunits [4]: no affinity for or efficacy

Structure (SMILES): O=C(NCCN1CCOCC1)c1ccc(Cl)cc1 [Moclobemide]
- inhibition of monoamine oxidase A (MAO-A) [5]: A single 300 mg dose of moclobemide inhibits 80% of monoamine
- inhibition of monoamine oxidase B (MAO-B) [6]: oxidase A (MAO-A) and 30% of monoamine oxidase B (MAO-B),

Structure (SMILES): CCC1(c2ccccc2)C(=O)NC(=O)NC1=O.CNC(C)CC1CCCCC1 [BARBEXACLONE]
- dose equivalent to 60 mg of phenobarbital ([2]; in vivo): 100 mg of barbexaclone is equivalent to 60 mg of phenobarbital.

Structure (SMILES): CCCCC1(CC)C(=O)NC(=O)NC1=O [BUTOBARBITAL]
- dose equivalent to 10 mg of Diazepam ([2]; butobarbital): 50 mg of Butobarbital is equivalent to 10 mg of Diazepam; Acc. to

Structure (SMILES): Cc1ncc2n1-c1ccc(Cl)cc1C(c1ccccc1F)=NC2 [MIDAZOLAM]
- sedation during the preoperative period [7]: (0.02 to 0.05 mg/kg) of VERSED produced adequate sedation

Structure (SMILES): CCN(C(C)=O)c1cccc(-c2ccnc3c(C#N)cnn23)c1 [ZALPELON]
- amount of α4 subunit mRNA after withdrawal of the drug [1]: marked increase
